Source: patent US9271984B2, “Treatment of type 1 diabetes” (POXEL, priority 2010, dated 2016)

System: rat pancreatic islets
Assay: Protective effect on beta cell death: quantification of cytoplasmic nucleosomes (apoptosis, Cell Death Detection ELISA) in cultured rat islets with or without cytokine cocktail
Type: cell-based
Experimental: Male Wistar rat islets (Elevage Janvier, Le Genest-St-Isle, France) were isolated using collagenase (Serva, Heidelberg, Germany) and cultured in RPMI at 11 mM glucose (Invitrogen, CA, USA) supplemented with 10% FCS (Fetal Calf Serum), 100 Units/ml penicillin, 100 μg/ml streptomycin and 100 μg/ml gentamycin in low-attachment 24-well plates (Corning, NY, USA). These islets were incubated with a cocktail of rat cytokines (TNF-alpha, IL-1beta and INF-gamma each at 2 ng/ml) for 24 hours (Brun T. et al., 2004 and 2007). […] Aliquots of the medium were used to measure insulin accumulated during the culture period using immune enzyme assay kits (Brunchwig, Basel, Switzerland). Furthermore, quantification of cytoplasmic nucleosomes, a direct indicator of apoptosis, was performed with the Cell Death Detection ELISA kit (Roche, Basel, Switzerland). Each condition was tested with 50 rat islets in duplicate and four independent experiments were performed. The results are provided as mean+/−sem and statistical analyses were performed using one-way ANOVA with Bonferroni and Dunnett post-hoc tests.
The conditions without cytokines allowed the analysis of the specific effect of the compound on islets while the combination of the drug with cytokines allowed the study of the effect of Imeglimin on islets under an inflammatory stress. To measure cell death in islets, quantification of cytoplasmic nucleosomes in islet cells, a consequence of DNA fragmentation during apoptosis (Robertson et al., 2000), was performed. […] Furthermore, a negative control and a positive control were added to the conditions with and without cytokines to test the effectiveness of the protocol. […] The results of the quantification of cell death for each condition are presented on FIG. 1.

[1] = with cytokines (TNF-alpha, IL-1beta, INF-gamma each 2 ng/ml, 24 hours), 100 μM

Compound | drop in apoptosis vs cytokine-stressed islets (with cytokines, Exe-4 10 nM) [%] | drop in apoptosis vs untreated islets (with cytokines, Exe-4 10 nM) [%] | decrease in cell death (without cytokines, Exe-4 10 nM, vs untreated islets) [%] | protective properties against apoptosis on cultured rat islets (basal and inflammation-like apoptosis) | protection of islets from the cytokine stress (both doses (100 μM and 1 mM), cytokine cocktail 24 hours) | less apoptosis than cytokine-stressed islets [1] [%] | less apoptosis than untreated islets [1] [%] | less apoptosis than cytokine-stressed islets (with cytokines, 1 mM) [%] | less apoptosis than untreated islets (with cytokines, 1 mM) [%] | potency relative to Exendin-4 (more potent) (with cytokines, lower concentration tested (100 μM) vs Exe-4 10 nM) [%] | level of protection relative to the Exendin-4 level (without cytokines, 100 μM vs Exe-4 10 nM) | less apoptosis than untreated islets (without cytokines, 100 μM, 24 hours culture) [%]
Exendin-4 [reference compound] | 29 | 20 | 16 | – | – | – | – | – | – | – | – | –
CC1N=C(N)NC(N(C)C)=N1.Cl (single isomer, unassigned; (+)) [(+)-2-amino-3,6-dihydro-4-dimethylamino-6-methyl-1,3,5-triazine hydrochloride] | – | – | – | protective properties against basal and inflammation-like apoptosis | completely protected | 37 | 29 | 25 | 16 | ~50 | two thirds | 10
